Assay: mDSC measurement of the glass transition temperature (Tg)
Assay type: physicochemical
Conditions: freshly prepared, ball milled (Table 2)
Description: The mDSC thermograms of the samples were collected using a Discovery DSC (TA instruments, New Castle, USA) under a nitrogen gas flow of 50 ml/min. The samples containing Compound A, Compound B and IND were analysed at a heating rate of 2° C./min from 25° C. to 200° C., with an underlying modulation temperature amplitude of 0.2120° C. and a period of 40 s. For the remaining samples the same heating rate, amplitude and period were applied. Samples containing compounds APA, BDQ, RIF and VNX were heated from 25° C. to 250° C., and samples containing Compound RIT were heated from 0° C. to 170° C. A total of 4-8 mg sample powder was filled into aluminium Tzero pans and sealed with an aluminium Tzero lid. The glass transition temperature (Tg) was determined as the midpoint from the reversing heat flow signal.

Tg | Compound
79.4 °C | bedaquiline fumarate [Pure amorphous BDQ]
41.7 °C | CC(C)c1nc(CN(C)C(=O)N[C@H](C(=O)N[C@@H](Cc2ccccc2)C[C@H](O)[C@H](Cc2ccccc2)NC(=O)OCc2cncs2)C(C)C)cs1 [Pure amorphous RIT, ritonavir]
194.4 °C | CO[C@H]1/C=C/O[C@@]2(C)Oc3c(C)c(O)c4c(O)c(c5c(nc6cc(C)ccn65)c4c3C2=O)NC(=O)/C(C)=C\C=C\[C@H](C)[C@H](O)[C@@H](C)[C@@H](O)[C@@H](C)[C@H](OC(C)=O)[C@@H]1C [Pure amorphous RIF, rifaximin]
97.4 °C | CNC(=O)c1ccc(N2C(=S)N(c3cnc(C#N)c(C(F)(F)F)c3)C(=O)C23CCC3)cc1F [Pure amorphous APA, Apalutamide]

Reference: US12564554B2, “Co-amorphous forms of beta-lactoglobulin and a drug substance” (DISPERSOME IP APS, priority 2019, dated 2026)
